Each molecule was assayed against D2 receptor (Homo sapiens, UniProt P14416) (assay: [3H]Thymidine uptake assay for D2 intrinsic activity). Settings: Table 1; test compound 1 μM; 1 μM Quinpirole = 100% intrinsic activity.
Sequence of D2 receptor (P14416 whole entry): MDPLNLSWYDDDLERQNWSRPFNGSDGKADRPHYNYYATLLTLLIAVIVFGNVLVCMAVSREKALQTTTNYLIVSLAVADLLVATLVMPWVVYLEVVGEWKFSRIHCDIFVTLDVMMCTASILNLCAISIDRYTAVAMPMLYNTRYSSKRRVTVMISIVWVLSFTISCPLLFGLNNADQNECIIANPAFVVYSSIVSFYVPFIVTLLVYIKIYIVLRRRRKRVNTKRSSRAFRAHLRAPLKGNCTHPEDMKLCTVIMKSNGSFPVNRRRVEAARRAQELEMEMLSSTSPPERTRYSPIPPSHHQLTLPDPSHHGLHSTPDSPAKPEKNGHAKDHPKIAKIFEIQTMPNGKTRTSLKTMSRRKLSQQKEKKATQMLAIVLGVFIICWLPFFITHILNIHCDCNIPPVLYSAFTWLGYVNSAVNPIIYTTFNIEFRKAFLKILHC
Assay type: cell-based
For `O=C1CCc2ccc(OCCCCN3CCN(c4cc(Cl)ccc4Cl)CC3)nc2N1` [Example A12, 7-{4-[4-(2,5-Dichloro-phenyl)-piperazin-1-yl]-butoxy}-3,4-dihydro-1H-[1,8]naphthyridin-2-one], the Emax at 1 µM was 11%.
In the case of `Cc1cc(N2CCN(CCCCOc3ccc4c(n3)NC(=O)CC4)CC2)c(Cl)cc1F` [Example A13, 7-{4-[4-(2-Chloro-4-fluoro-5-methyl-phenyl)-piperazin-1-yl]-butoxy}-3,4-dihydro-1H-[1,8]naphthyridin-2-one], the Emax at 1 µM was 21%.
For `Cc1ccc(Cl)cc1N1CCN(CCCCOc2ccc3c(n2)NC(=O)CC3)CC1` [Example A14, 7-{4-[4-(5-Chloro-2-methyl-phenyl)-piperazin-1-yl]-butoxy}-3,4-dihydro-1H-[1,8]naphthyridin-2-one], the Emax at 1 µM was 7%.
Work on `Cc1c(F)ccc(N2CCN(CCCCOc3ccc4c(n3)NC(=O)CC4)CC2)c1Cl` [Example A15, 7-{4-[4-(2-Chloro-4-fluoro-3-methyl-phenyl)-piperazin-1-yl]-butoxy}-3,4-dihydro-1H-[1,8]naphthyridin-2-one] yielded an Emax at 1 µM of 4%.
`CCc1cccc(N2CCN(CCCCOc3ccc4c(n3)NC(=O)CC4)CC2)c1` [Example A16, 7-{4-[4-(3-Ethyl-phenyl)-piperazin-1-yl]-butoxy}-3,4-dihydro-1H-[1,8]naphthyridin-2-one] was tested, and the Emax at 1 µM was 16%.
In the case of `COc1c(Cl)cccc1N1CCN(CCCCOc2ccc3c(n2)NC(=O)CC3)CC1` [Example A17, 7-{4-[4-(3-Chloro-2-methoxy-phenyl)-piperazin-1-yl]-butoxy}-3,4-dihydro-1H-[1,8]naphthyridin-2-one], the Emax at 1 µM was 15%.
In the case of `COc1cccc(N2CCN(CCCCOc3ccc4c(n3)NC(=O)CC4)CC2)c1OC` [Example A19, 7-{4-[4-(2,3-Dimethoxy-phenyl)-piperazin-1-yl]-butoxy}-3,4-dihydro-1H-[1,8]naphthyridin-2-one], the Emax at 1 µM was 10%.
Molecule `CCOc1ccccc1N1CCN(CCCCOc2ccc3c(n2)NC(=O)CC3)CC1` [Example A20, 7-{4-[4-(2-Ethoxy-phenyl)-piperazin-1-yl]-butoxy}-3,4-dihydro-1H-[1,8]naphthyridin-2-one] has an Emax at 1 µM of 19%.
`COc1cccc(N2CCN(CCCCOc3ccc4c(n3)NC(=O)CC4)CC2)c1Cl` [Example A22, 7-{4-[4-(2-Chloro-3-methoxy-phenyl)-piperazin-1-yl]-butoxy}-3,4-dihydro-1H-[1,8]naphthyridin-2-one] gave an Emax at 1 µM of 36%.
With `CC(C)Oc1ccc(Cl)cc1N1CCN(CCCCOc2ccc3c(n2)NC(=O)CC3)CC1` [Example A25, 7-{4-[4-(5-Chloro-2-isopropoxy-phenyl)-piperazin-1-yl]-butoxy}-3,4-dihydro-1H-[1,8]naphthyridin-2-one] the Emax at 1 µM was 27%.
`CC(C)Oc1ccccc1N1CCN(CCCCOc2ccc3c(n2)NC(=O)CC3)CC1` [Example A26, 7-{4-[4-(2-Isopropoxy-phenyl)-piperazin-1-yl]-butoxy}-3,4-dihydro-1H-[1,8]naphthyridin-2-one] gave an Emax at 1 µM of 33%.
In the case of `CC(C)COc1ccccc1N1CCN(CCCCOc2ccc3c(n2)NC(=O)CC3)CC1` [Example A27, 7-{4-[4-(2-Isobutoxy-phenyl)-piperazin-1-yl]-butoxy}-3,4-dihydro-1H-[1,8]naphthyridin-2-one], the Emax at 1 µM was 38%.
In the case of `CCc1c(Cl)cccc1N1CCN(CCCCOc2ccc3c(n2)NC(=O)CC3)CC1` [Example A29, 7-{4-[4-(3-Chloro-2-ethyl-phenyl)-piperazin-1-yl]-butoxy}-3,4-dihydro-1H-[1,8]naphthyridin-2-one], the Emax at 1 µM was 20%.
`CC(=O)c1c(F)cccc1N1CCN(CCCCOc2ccc3c(n2)NC(=O)CC3)CC1` [Example A30, 7-{4-[4-(2-Acetyl-3-fluoro-phenyl)-piperazin-1-yl]-butoxy}-3,4-dihydro-1H-[1,8]naphthyridin-2-one] gave an Emax at 1 µM of 11%.
`CCc1c(F)cccc1N1CCN(CCCCOc2ccc3c(n2)NC(=O)CC3)CC1` [Example A31, 7-{4-[4-(2-Ethyl-3-fluoro-phenyl)-piperazin-1-yl]-butoxy}-3,4-dihydro-1H-[1,8]naphthyridin-2-one] showed an Emax at 1 µM of 26%.
Work on `CC(=O)c1cccc(N2CCN(CCCCOc3ccc4c(n3)NC(=O)CC4)CC2)c1` [Example A33, 7-{4-[4-(3-Acetyl-phenyl)-piperazin-1-yl]-butoxy}-3,4-dihydro-1H-[1,8]naphthyridin-2-one] yielded an Emax at 1 µM of 31%.
For `CC(=O)c1ccccc1N1CCN(CCCCOc2ccc3c(n2)NC(=O)CC3)CC1` [Example A34, 7-{4-[4-(2-Acetyl-phenyl)-piperazin-1-yl]-butoxy}-3,4-dihydro-1H-[1,8]naphthyridin-2-one], the Emax at 1 µM was 8%.
`CCc1ccccc1N1CCN(CCCCOc2ccc3c(n2)NC(=O)CC3)CC1` [Example A35, 7-{4-[4-(2-Ethyl-phenyl)-piperazin-1-yl]-butoxy}-3,4-dihydro-1H-[1,8]naphthyridin-2-one] showed an Emax at 1 µM of 24%.

Same assay, conditions: Table 2; test compound 1 μM; 1 μM Quinpirole = 100% intrinsic activity
Work on `O=C1CCc2ccc(OCCCCN3CCN(c4cccc5c4CCO5)CC3)nc2N1` [Example A11′, 7-{4-[4-(2,3-Dihydro-benzofuran-4-yl)-piperazin-1-yl]-butoxy}-3,4-dihydro-1H-[1,8]naphthyridin-2-one] yielded an Emax at 1 µM of 17%.
In the case of `O=C1CCc2ccc(OCCCCN3CCN(c4cccc5c4CCCO5)CC3)nc2N1` [Example A13′, 7-[4-(4-Chroman-5-yl-piperazin-1-yl)-butoxy]-3,4-dihydro-1H-[1,8]naphthyridin-2-one], the Emax at 1 µM was 14%.
`O=C1CCc2ccc(OCCCCN3CCN(c4cccc5c4OCCO5)CC3)nc2N1` [Example A16′, 7-{4-[4-(2,3-Dihydro-benzo[1,4]dioxin-5-yl)-piperazin-1-yl]-butoxy}-3,4-dihydro-1H-[1,8]naphthyridin-2-one] showed an Emax at 1 µM of 15%.
For `O=C1CCc2ccc(OCCCCN3CCN(c4cccc5c4OCCCO5)CC3)nc2N1` [Example A17′, 7-{4-[4-(3,4-Dihydro-2H-benzo[b][1,4]dioxepin-6-yl)-piperazin-1-yl]-butoxy}-3,4-dihydro-1H-[1,8]naphthyridin-2-one], the Emax at 1 µM was 15%.
Work on `O=C1CCc2ccc(OCCCCN3CCN(c4cccc5c4OC(F)(F)C(F)(F)O5)CC3)nc2N1` [Example A18′, 7-{4-[4-(2,2,3,3-Tetrafluoro-2,3-dihydro-benzo[1,4]dioxin-5-yl)-piperazin-1-yl]-butoxy}-3,4-dihydro-1H-[1,8]naphthyridin-2-one] yielded an Emax at 1 µM of 13%.
For `O=C1CCc2ccc(OCCCCN3CCN(c4cccc5c4OC(F)(F)O5)CC3)nc2N1` [Example A19′, 7-{4-[4-(2,2-Difluoro-benzo[1,3]dioxol-4-yl)-piperazin-1-yl]-butoxy}-3,4-dihydro-1H-[1,8]naphthyridin-2-one], the Emax at 1 µM was 40%.
Molecule `CC1(C)COc2c(cccc2N2CCN(CCCCOc3ccc4c(n3)NC(=O)CC4)CC2)C1=O` [Example A21′, 7-{4-[4-(3,3-Dimethyl-4-oxo-chroman-8-yl)-piperazin-1-yl]-butoxy}-3,4-dihydro-1H-[1,8]naphthyridin-2-one] has an Emax at 1 µM of 24%.
`O=C1CCc2ccc(OCCCCN3CCN(c4cccc5ccoc45)CC3)nc2N1` [Example A23′, 7-[4-(4-Benzofuran-7-yl-piperazin-1-yl)-butoxy]-3,4-dihydro-1H-[1,8]naphthyridin-2-one] gave an Emax at 1 µM of 39%.
For `O=C1CCc2ccc(OCCCCN3CCN(c4cccc5cc[nH]c45)CC3)nc2N1` [Example A24′, 7-{4-[4-(1H-Indol-7-yl)-piperazin-1-yl]-butoxy}-3,4-dihydro-1H-[1,8]naphthyridin-2-one], the Emax at 1 µM was 6%.
For `O=C1CCc2ccc(OCCCCN3CCN(c4cccc5[nH]ccc45)CC3)nc2N1` [Example A25′, 7-{4-[4-(1H-Indol-4-yl)-piperazin-1-yl]-butoxy}-3,4-dihydro-1H-[1,8]naphthyridin-2-one], the Emax at 1 µM was 36%.
In the case of `Cn1ccc2c(N3CCN(CCCCOc4ccc5c(n4)NC(=O)CC5)CC3)cccc21` [Example A26′, 7-{4-[4-(1-Methyl-1H-indol-4-yl)-piperazin-1-yl]-butoxy}-3,4-dihydro-1H-[1,8]naphthyridin-2-one], the Emax at 1 µM was 12%.
For `Cc1cc2c(N3CCN(CCCCOc4ccc5c(n4)NC(=O)CC5)CC3)cccc2[nH]1` [Example A27′, 7-{4-[4-(2-Methyl-1H-indol-4-yl)-piperazin-1-yl]-butoxy}-3,4-dihydro-1H-[1,8]naphthyridin-2-one], the Emax at 1 µM was 21%.
`O=C1CCc2ccc(OCCCCN3CCN(c4cccc5sccc45)CC3)nc2N1` [Example A28′, 7-[4-(4-Benzo[b]thiophen-4-yl-piperazin-1-yl)-butoxy]-3,4-dihydro-1H-[1,8]naphthyridin-2-one] gave an Emax at 1 µM of 21%.
For `O=C1CCc2ccc(OCCCCN3CCN(c4cccc5nonc45)CC3)nc2N1` [Example A29′, 7-[4-(4-Benzo[1,2,5]oxadiazol-4-yl-piperazin-1-yl)-butoxy]-3,4-dihydro-1H-[1,8]naphthyridin-2-one], the Emax at 1 µM was 33%.
Work on `O=C1CCc2ccc(OCCCCN3CCN(c4cccc5nsnc45)CC3)nc2N1` [Example A30′, 7-[4-(4-Benzo[1,2,5]thiadiazol-4-yl-piperazin-1-yl)-butoxy]-3,4-dihydro-1H-[1,8]naphthyridin-2-one] yielded an Emax at 1 µM of 41%.
`CN1CCCc2c1cccc2N1CCN(CCCCOc2ccc3c(n2)NC(=O)CC3)CC1` [Example A32′, 7-{4-[4-(1-Methyl-1,2,3,4-tetrahydro-quinolin-5-yl)-piperazin-1-yl]-butoxy}-3,4-dihydro-1H-[1,8]naphthyridin-2-one] showed an Emax at 1 µM of 27%.
`CCN1CCCc2c1cccc2N1CCN(CCCCOc2ccc3c(n2)NC(=O)CC3)CC1` [Example A33′, 7-{4-[4-(1-Ethyl-1,2,3,4-tetrahydro-quinolin-5-yl)-piperazin-1-yl]-butoxy}-3,4-dihydro-1H-[1,8]naphthyridin-2-one] was tested, and the Emax at 1 µM was 18%.
Molecule `O=C1CCc2ccc(OCCCCN3CCN(c4cccc5cccnc45)CC3)nc2N1` [Example A34′, 7-[4-(4-Quinolin-8-yl-piperazin-1-yl)-butoxy]-3,4-dihydro-1H-[1,8]naphthyridin-2-one] has an Emax at 1 µM of 38%.
`O=C1CCc2ccc(OCCCCN3CCN(c4cccc5ncccc45)CC3)nc2N1` [Example A35′, 7-[4-(4-Quinolin-5-yl-piperazin-1-yl)-butoxy]-3,4-dihydro-1H-[1,8]naphthyridin-2-one] gave an Emax at 1 µM of 20%.
